Reference: patent publication US6914045B2, “Glycopeptide antibiotics” (Wyeth Holdings Corporation, priority 2001, dated 2005)
In brackets after ≈: the same amount, converted by molar mass.

Experiments:
[1] = tested on: Enterococcus sp.; assay: in vitro antibacterial evaluation, MIC by broth dilution; assay type: cell-based; conditions: broth dilution, 18 hours at 35° C.
Summary of the method: (§1)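 MIC = lowest antibiotic concentration preventing visible growth; inoculum 5×10^5 CFU/mL; drug range 64-0.06 μg/mL; Muller-Hinton II […]; NCCLS M7-A2 guidance.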

[2] = tested on: Streptococcus sp.; assay: as above; assay type: cell-based; conditions: broth dilution, 18 hours at 35° C.
Summary of the method: as §1

[3] = tested on: Staphylococcus sp.; assay: as above; assay type: cell-based; conditions: broth dilution, 18 hours at 35° C.
Summary of the method: as §1

[4] = tested on: Staphylococcus aureus-SMITH (GC 4543); assay: acute lethal infection in mice; assay type: in vivo; conditions: acute lethal infection, female CD-1 mice, intraperitoneal challenge, intravenous 30 min. after infection, 7 day survival
Summary of the method: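 Intraperitoneal challenge of female CD-1 mice with a bacterial dose lethal to untreated animals within 24-48 hr; single iv treatment 30 min later, 5 mice per dose level. Survival is scored at day 7 and pooled from three experiments to give the median effective dose.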

[5] = tested on: Escherichia coli; assay: in vitro antibacterial evaluation, MIC by broth dilution; assay type: cell-based; conditions: 18 hours at 35° C.

## CC(c1ccccc1)C1NC(=O)CNC(=O)C(CO)NC(=O)C(C(O)C2CNC(=N)N2C2OC(CO)C(O)C(O)C2O)NC(=O)C(C(O)C2CNC(=N)N2)NC(=O)C(Cc2ccc(OC3OC(CO)C(OC4OC(CO)C(OCc5ccc(OCc6ccccc6)cc5)C(O)C4O)C(O)C3O)cc2)NC1=O (stereo not drawn) [Example 231a, Cyclo[glycyl-β-methylphenylalanyl-O-[4-O-[4-O-[4-(phenylmethoxy)benzyl]hexopyranosyl]-hexopyranosyl]tyrosyl-3-(2-iminoimidazolidin-4-yl)seryl-3-(3-hexopyranosyl-2-iminoimidazolidin-4-yl)serylseryl]]
[1]
  MIC Enterococcus avium (GC 4558): 2 µg/mL (≈ 1.34 µM)
  MIC Enterococcus faecalis (ATCC 29212): 2 µg/mL (≈ 1.34 µM)
  MIC Enterococcus faecalis (GC 2242): 2 to 4 µg/mL
  MIC Enterococcus faecalis (GC 2691): 2 µg/mL (≈ 1.34 µM)
  MIC Enterococcus faecalis (GC 3059): 1 to 2 µg/mL
  MIC Enterococcus faecalis (GC 4552): 4 µg/mL (≈ 2.68 µM)
  MIC Enterococcus faecalis (GC 4553): 4 µg/mL (≈ 2.68 µM)
  MIC Enterococcus faecalis (GC 4554): 4 µg/mL (≈ 2.68 µM)
  MIC Enterococcus faecalis (GC 6189): 1 to 2 µg/mL
  MIC Enterococcus faecium (GC 2243): 2 µg/mL (≈ 1.34 µM)
  MIC Enterococcus faecium (GC 4556): 2 to 4 µg/mL
  MIC Enterococcus faecium (GC 4557): 2 µg/mL (≈ 1.34 µM)
[1]; inoculum 5×10^5 CFU/mL, strain ATCC 29212
  MIC Enterococcus faecalis (ATCC 29212): 2 µg/mL (≈ 1.34 µM)
[1]; inoculum 5×10^5 CFU/mL, strain GC 2242
  MIC Enterococcus faecalis (GC 2242): 2 to 4 µg/mL
[1]; inoculum 5×10^5 CFU/mL, strain GC 2243
  MIC Enterococcus faecium (GC 2243): 2 µg/mL (≈ 1.34 µM)
[1]; inoculum 5×10^5 CFU/mL, strain GC 2691
  MIC Enterococcus faecalis (GC 2691): 2 µg/mL (≈ 1.34 µM)
[1]; inoculum 5×10^5 CFU/mL, strain GC 3059
  MIC Enterococcus faecalis (GC 3059): 1 to 2 µg/mL
[1]; inoculum 5×10^5 CFU/mL, strain GC 4552
  MIC Enterococcus faecalis (GC 4552): 4 µg/mL (≈ 2.68 µM)
[1]; inoculum 5×10^5 CFU/mL, strain GC 4553
  MIC Enterococcus faecalis (GC 4553): 4 µg/mL (≈ 2.68 µM)
[1]; inoculum 5×10^5 CFU/mL, strain GC 4554
  MIC Enterococcus faecalis (GC 4554): 4 µg/mL (≈ 2.68 µM)
[1]; inoculum 5×10^5 CFU/mL, strain GC 4556
  MIC Enterococcus faecium (GC 4556): 2 to 4 µg/mL
[1]; inoculum 5×10^5 CFU/mL, strain GC 4557
  MIC Enterococcus faecium (GC 4557): 2 µg/mL (≈ 1.34 µM)
[1]; inoculum 5×10^5 CFU/mL, strain GC 4558
  MIC Enterococcus avium (GC 4558): 2 µg/mL (≈ 1.34 µM)
[1]; inoculum 5×10^5 CFU/mL, strain GC 6189
  MIC Enterococcus faecalis (GC 6189): 1 to 2 µg/mL
[2]
  MIC Streptococcus agalactiae (GC 4564): <0.06 µg/mL
  MIC Streptococcus pneumoniae (ATCC 6301): <0.06 µg/mL
  MIC Streptococcus pneumoniae (GC 1894): <0.06 µg/mL
  MIC Streptococcus pneumoniae (GC 4565): <0.06 µg/mL
  MIC Streptococcus pyogenes (GC 4563): <0.06 µg/mL
[2]; inoculum 5×10^5 CFU/mL, strain ATCC 6301
  MIC Streptococcus pneumoniae (ATCC 6301): <0.06 µg/mL
[2]; inoculum 5×10^5 CFU/mL, strain GC 1894
  MIC Streptococcus pneumoniae (GC 1894): <0.06 µg/mL
[2]; inoculum 5×10^5 CFU/mL, strain GC 4563
  MIC Streptococcus pyogenes (GC 4563): <0.06 µg/mL
[2]; inoculum 5×10^5 CFU/mL, strain GC 4564
  MIC Streptococcus agalactiae (GC 4564): <0.06 µg/mL
[2]; inoculum 5×10^5 CFU/mL, strain GC 4565
  MIC Streptococcus pneumoniae (GC 4565): <0.06 µg/mL
[3]
  MIC Coagulase Negative Staphylococcus (GC 4547): 1 µg/mL (≈ 0.67 µM)
  MIC Coagulase Negative Staphylococcus (GC 4548): 0.12 to 0.25 µg/mL
  MIC Coagulase Negative Staphylococcus (GC 4549): >0.12 to 0.25 µg/mL
  MIC Coagulase Negative Staphylococcus (GC 4551): 0.5 µg/mL (≈ 0.335 µM)
  MIC Coagulase Negative Staphylococcus (GC 6257): 0.5 µg/mL (≈ 0.335 µM)
  MIC Staphylococcus aureus (ATCC 29213): 1 to 2 µg/mL
  MIC Staphylococcus aureus (GC 1131): 1 to 2 µg/mL
  MIC Staphylococcus aureus (GC 3051): 1 µg/mL (≈ 0.67 µM)
  MIC Staphylococcus aureus (GC 3053): 1 to 2 µg/mL
  MIC Staphylococcus aureus (GC 4541): 1 to 2 µg/mL
  MIC Staphylococcus aureus (GC 4542): 0.5 to 1 µg/mL
  MIC Staphylococcus aureus (GC 4544): 2 to 4 µg/mL
  MIC Staphylococcus aureus (GC 4545): 1 to 2 µg/mL
  MIC Staphylococcus aureus-SMITH (GC 4543): 1 µg/mL (≈ 0.67 µM)
  MIC Staphylococcus haemolyticus (GC 4546): 1 µg/mL (≈ 0.67 µM)
[3]; strain ATCC 29213
  MIC Staphylococcus aureus (ATCC 29213): 1 to 2 µg/mL
[3]; strain GC 1131
  MIC Staphylococcus aureus (GC 1131): 1 to 2 µg/mL
[3]; strain GC 3051
  MIC Staphylococcus aureus (GC 3051): 1 µg/mL (≈ 0.67 µM)
[3]; strain GC 3053
  MIC Staphylococcus aureus (GC 3053): 1 to 2 µg/mL
[3]; strain GC 4541
  MIC Staphylococcus aureus (GC 4541): 1 to 2 µg/mL
[3]; strain GC 4542
  MIC Staphylococcus aureus (GC 4542): 0.5 to 1 µg/mL
[3]; strain GC 4543
  MIC Staphylococcus aureus-SMITH (GC 4543): 1 µg/mL (≈ 0.67 µM)
[3]; strain GC 4544
  MIC Staphylococcus aureus (GC 4544): 2 to 4 µg/mL
[3]; strain GC 4545
  MIC Staphylococcus aureus (GC 4545): 1 to 2 µg/mL
[3]; strain GC 4546
  MIC Staphylococcus haemolyticus (GC 4546): 1 µg/mL (≈ 0.67 µM)
[3]; strain GC 4547
  MIC Coagulase Negative Staphylococcus (GC 4547): 1 µg/mL (≈ 0.67 µM)
[3]; strain GC 4548
  MIC Coagulase Negative Staphylococcus (GC 4548): 0.12 to 0.25 µg/mL
[3]; strain GC 4549
  MIC Coagulase Negative Staphylococcus (GC 4549): <0.12 to 0.25 µg/mL
[3]; strain GC 4551
  MIC Coagulase Negative Staphylococcus (GC 4551): 0.5 µg/mL (≈ 0.335 µM)
[3]; strain GC 6257
  MIC Coagulase Negative Staphylococcus (GC 6257): 0.5 µg/mL (≈ 0.335 µM)
[4]
  median effective dose (ED50), Staphylococcus aureus-SMITH (GC 4543): 0.06 mg/kg
[5]
  MIC Escherichia coli (ATCC 25922): 32 to 64 µg/mL
  MIC Escherichia coli (GC 4559): 32 µg/mL (≈ 21.5 µM)
  MIC Escherichia coli (GC 4560): 0.5 to 2 µg/mL
